The source of these data is ChEMBL document CHEMBL2034929, “A specific molecular beacon probe for the detection of human prostate cancer cells” (Bioorg Med Chem Lett, 2012).

SMILES strings stand for the structures.

Series [1] concerns LNCaP. Put plainly: Drug metabolism in human LNCAP cell lysates at 10 uM after 26 hrs by fluorescence analysis relative to untreated human RWPE1 cells. Format: ADME, cell-based, Lysate.
The test system of series [2] is LNCaP. Briefly: Drug metabolism in human LNCAP cell lysates at 10 uM after 26 hrs by fluorescence analysis relative to human RWPE1 cells. Format: ADME, cell-based, Lysate.
Series [3] has as its system LNCaP. Put plainly: Drug metabolism in human LNCAP cell lysates at 10 uM after 26 hrs by UV-VIS spectrophotometry relative to human RWPE1 cells. Format: ADME, cell-based, Lysate.
Series [4] in a line: Drug metabolism in human RWPE1 cells at 10 uM after 26 hrs by UV-VIS spectrophotometry. Format: ADME, cell-based, RWPE-1. To be noted: read-out: Drug metabolism.
A short description of series [5]: Drug metabolism in 0.10 M tris-maleate buffer at pH 8 assessed as formation of 2-[3-[[(3'6'-Dihydroxy-3-oxospiro[isobenzofuran-1(3H), 9'-[9H]xanthen]-6-yl)carbonyl]amino]-1-propyn-1-yl]-benzenemethanol by mass spectrometry in presence of porcine liver carboxylesterase. Format: physicochemical. The following applies: pig.
Series [6] in a line: Drug metabolism in human LNCAP cells at 10 uM after 26 hrs by UV-VIS spectrophotometry. Format: ADME, cell-based. The following applies: read-out: Drug metabolism.
Series [7] has as its system LNCaP. Briefly: Drug metabolism in human LNCAP cells at 10 uM after 30 mins by fluorescence microscopy. The following applies: 0.5 h. Format: ADME, cell-based.
A short description of series [8]: Drug metabolism in 0.10 M tris-maleate buffer at pH 8 assessed as increase in fluorescence at 10 uM after 5 hrs by UV-VIS spectrophotometry in presence of porcine liver carboxylesterase relative to control. Format: physicochemical. The following applies: pig, pH 8, 5 h.
Series [9] is described as follows: Drug metabolism in human RWPE1 cells at 10 uM after 30 mins by fluorescence microscopy. The following applies: rwpe-1, 0.5 h. Format: ADME, cell-based.
The subject of series [10] is LNCaP. Put plainly: Drug metabolism in human LNCAP cell lysates assessed as formation of N-[4-[(1E)-2-[4-(dimethylamino)phenyl]diazenyl]benzoyl]-glycine. Format: ADME, cell-based, Lysate.
The test system of series [11] is LNCaP. Briefly: Drug metabolism in human LNCAP cell lysates assessed as formation of 2-[3-[[(3'6'-Dihydroxy-3-oxospiro[isobenzofuran-1(3H), 9'-[9H]xanthen]-6-yl)carbonyl]amino]-1-propyn-1-yl]-benzenemethanol. Format: ADME, cell-based, Lysate.
Series [12] is described as follows: Drug metabolism in 0.10 M tris-maleate buffer at pH 8 assessed as formation of N-[4-[(1E)-2-[4-(dimethylamino)phenyl]diazenyl]benzoyl]-glycine by mass spectrometry in presence of porcine liver carboxylesterase. Format: physicochemical. To be noted: pig.
Series [13] deals with LNCaP. Briefly: Drug metabolism in human LNCAP cell lysates at 10 uM after 10 days by fluorescence analysis. Format: ADME, cell-based, Lysate. To be noted: 240 h.

In the case of `CN(C)c1ccc(/N=N/c2ccc(C(=O)NCC(=O)OCc3ccccc3C#CCNC(=O)c3ccc4c(c3)C3(OC4=O)c4ccc(O)cc4Oc4cc(O)ccc43)cc2)cc1`, the “fold change (FC)” value turned out to be 30.8 in [1], 3.8 in series [2], 2.9 in series [3] and 23 in [8]. The results for the metabolised at 26 h, 10 µM in [4] and in [6] were 10% and 29%, respectively. Moreover, the Drug metabolism entry is “Active” in series [5]; “Active” in series [7]; “Not Active” in series [9]; “Active” in [10]; “Active” in [11]; “Active” in series [12]. The Drug metabolism entry in series [13] is “Active”.
